Among the data in patent publication US9351973B2, “Pyrazolopyridyl compounds as aldosterone synthase inhibitors” (Merck Sharp & Dohme Corp., priority 2011, dated 2016) are inhibition and IC50 values, retold here.

human CYP11B1, sequence (P15538 25-503): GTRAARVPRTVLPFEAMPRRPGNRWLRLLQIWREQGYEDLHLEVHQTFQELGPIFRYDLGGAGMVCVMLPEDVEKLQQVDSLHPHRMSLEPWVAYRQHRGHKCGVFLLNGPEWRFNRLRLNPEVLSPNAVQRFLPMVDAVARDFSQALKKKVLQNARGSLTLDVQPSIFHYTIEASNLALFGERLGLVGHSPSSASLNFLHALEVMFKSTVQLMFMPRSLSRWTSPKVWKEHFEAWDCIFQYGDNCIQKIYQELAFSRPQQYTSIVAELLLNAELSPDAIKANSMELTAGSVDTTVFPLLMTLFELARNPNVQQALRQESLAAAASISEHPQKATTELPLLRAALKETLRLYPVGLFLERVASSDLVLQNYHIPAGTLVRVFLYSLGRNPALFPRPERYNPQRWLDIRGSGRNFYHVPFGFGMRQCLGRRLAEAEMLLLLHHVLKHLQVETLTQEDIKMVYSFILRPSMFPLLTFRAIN
human CYP11B2, sequence (P19099 25-503): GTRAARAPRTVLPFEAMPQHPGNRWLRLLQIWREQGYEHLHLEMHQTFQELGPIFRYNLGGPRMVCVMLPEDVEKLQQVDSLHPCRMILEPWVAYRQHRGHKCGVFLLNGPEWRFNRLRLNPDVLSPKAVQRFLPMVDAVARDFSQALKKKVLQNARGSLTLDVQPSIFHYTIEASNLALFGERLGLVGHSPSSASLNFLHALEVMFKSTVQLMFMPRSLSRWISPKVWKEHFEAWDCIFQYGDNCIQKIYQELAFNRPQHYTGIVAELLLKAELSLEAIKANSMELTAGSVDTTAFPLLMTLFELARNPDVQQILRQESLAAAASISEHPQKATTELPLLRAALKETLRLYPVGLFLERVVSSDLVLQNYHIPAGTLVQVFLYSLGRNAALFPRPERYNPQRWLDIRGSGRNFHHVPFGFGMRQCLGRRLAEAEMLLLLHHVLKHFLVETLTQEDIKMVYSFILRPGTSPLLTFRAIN

One assay concerns the target human CYP11B1 (Homo sapiens (Human), UniProt P15538). The experiment in a line: V79-Human-CYP11B1 cell assay (cortisol formation from 11-deoxycortisol, HTRF). In kind it is cell-based.
Conditions: not given
The procedure: (§1) Methods for V79-Human-CYP11B2 and V79-Human-CYP11B1 Assays: V79 cell lines stably expressing the either the human CYP11B2 or the human CYP11B1 enzyme were generated using a standard transfection protocol. V79 cells were transfected with plasmids pTriEx3-Hygro-hCyp11B2 or pTriEx3-Hygro-hCyp11B1 using Lipofectamine2000 reagent. V79 cells that stably express the human CYP11B2 or human CYP11B1 enzyme were selected for and maintained in DMEM supplemented with 10% FBS and 400 μg/mL hygromycin for ˜2 weeks. Single cell clones were generated by infinite dilution in DMEM supplemented with 10% FBS and 400 μg/mL hygromycin until single colonies were obtained. Clones V79-hCYP11B2-CLE9 and V79-hCYP11B1-8CLC7, were determined to produce the most aldosterone and cortisol, respectively, and were selected for inhibitor screening. For testing of inhibitors, cells were harvested at 80% confluency with 0.5% Trypsan-EDTA, washed once in PBS, and reconstituted in DMEM+0.1% BSA media at a cell concentration of 600,000 cells/mL for the CYP11B2 assay and 280,000 cells/mL for the CYP11B1 assay. 25 μL of cells were added to a 384 well tissue culture treated plate and mixed with 0.3 μL of inhibitor or DMSO (1% final DMSO concentration) for 1 hour at 37° C., 5% CO2. After pre-incubation with inhibitor, the reaction was initiated by adding 5 μL of substrate (final concentration of 125 nM 11-deoxycorticosterone for the CYP11B2 assay or 250 nM 11-deoxycortisol for the CYP11B1 assay). The reaction was carried out for 3 hours at 37° C., 5% CO2 and was stopped by harvesting the supernatants. The amount of product in the supernatant (aldosterone for CYP11B2 assay and cortisol for the CYP11B1 assay) was measured using HTRF-based assay kit (Aldosterone HTRF-CisBio#64ALDPEB, Cortisol HTRF-CisBio #63IDC002-CORT). IC50s for the inhibitor were determined by plotting the amount of product formed against the concentration of inhibitor using sigmoidal dose-response curve (variable slope) fit in GraphPad.
In general terms: Time-resolved FRET reads energy transfer from a long-lived donor to a nearby acceptor.
`Cc1cncc(-c2nn3c(c2C2CC2)NC(=O)CC3)c1` [Example 10, 3-cyclopropyl-2-(5-methylpyridin-3-yl)-6,7-dihydropyrazolo[1,5-a]pyrimidin-5(4H)-one]: the inhibition at 10 µM was found to be 71%.

`O=C1CCn2nc(-c3cncc(F)c3)c(C3CC3)c2N1` [Example 19, 3-cyclopropyl-2-(5-fluoropyridin-3-yl)-6,7-dihydropyrazolo[1,5-a]pyrimidin-5(4H)-one] registered an inhibition at 10 µM of 38%.

Still in this assay, the particulars now being: V79 cells stably expressing human CYP11B1; 250 nM 11-deoxycortisol, 3 hours.
`Cc1cncc(-c2nn3c(c2C)NC(=O)CC3)c1` [Example 7, 3-methyl-2-(5-methylpyridin-3-yl)-6,7-dihydropyrazolo[1,5-a]pyrimidin-5(4H)-one] returned an IC50 of 282 nM.

For the molecule `Cc1cncc(-c2nn3c(c2C)N(C)C(=O)CC3)c1` [Example 8, 3,4-dimethyl-2-(5-methylpyridin-3-yl)-6,7-dihydropyrazolo[1,5-a]pyrimidin-5(4H)-one], inhibition was half-maximal at 3720 nM (IC50). This IC50 lies about 13-fold higher than the previous one.

In turn, `CCc1c(-c2cncc(C)c2)nn2c1N(C)C(=O)CC2` [Example 9, 3-ethyl-4-methyl-2-(5-methylpyridin-3-yl)-6,7-dihydropyrazolo[1,5-a]pyrimidin-5(4H)-one] gave an IC50 of 2340 nM.

As for `Cc1c(-c2cncc(F)c2)nn2c1N(C)C(=O)CC2` [Example 12, 2-(5-fluoropyridin-3-yl)-3,4-dimethyl-6,7-dihydropyrazolo[1,5-a]pyrimidin-5(4H)-one], the midpoint of inhibition, the IC50, lay at 1820 nM.

As for `CCc1c(-c2cncc(F)c2)nn2c1NC(=O)CC2` [Example 13, 3-ethyl-2-(5-fluoropyridin-3-yl)-6,7-dihydropyrazolo[1,5-a]pyrimidin-5(4H)-one], inhibition was half-maximal at 1350 nM (IC50). The IC50 values of the last two molecules are within 1.5-fold of each other.

In the case of `Cc1c(-c2cncc(F)c2)nn2c1NC(=O)CC2` [Example 15, 2-(5-fluoropyridin-3-yl)-3-methyl-6,7-dihydropyrazolo [1,5-a]pyrimidin-5(4H)-one], half-maximal inhibition (IC50) required 3630 nM.

`N#Cc1c(-c2cncc(Cl)c2)nn2c1NC(=O)CC2` [Example 26, 2-(5-chloropyridin-3-yl)-5-oxo-4,5,6,7-tetrahydropyrazolo[1,5-a]pyrimidine-3-carbonitrile] gave an IC50 of 1070 nM. Compared with the last molecule, the IC50 is about 3.4-fold lower.

The next assay has as its target human CYP11B2 (Homo sapiens (Human), UniProt P19099). Nature of the assay: V79-Human-CYP11B2 cell assay (aldosterone formation from 11-deoxycorticosterone, HTRF). In kind it is cell-based.
Conditions: not given
The procedure: as §1
`Cc1cncc(-c2nn3c(c2C#N)NC(=O)CC3)c1` [Example 25, 2-(5-methylpyridin-3-yl)-5-oxo-4,5,6,7-tetrahydropyrazolo[1,5-a]pyrimidine-3-carbonitrile] showed an inhibition at 1 µM of 61%.

Regarding `N#Cc1c(-c2cncc(Cl)c2)nn2c1NC(=O)CC2` [Example 26, 2-(5-chloropyridin-3-yl)-5-oxo-4,5,6,7-tetrahydropyrazolo[1,5-a]pyrimidine-3-carbonitrile], the inhibition at 1 µM is 51%.

The same assay, now with this note: V79 cells stably expressing human CYP11B2; 125 nM 11-deoxycorticosterone, 3 hours.
Regarding `Cc1cncc(-c2nn3c(c2C)NC(=O)CC3)c1` [Example 7, 3-methyl-2-(5-methylpyridin-3-yl)-6,7-dihydropyrazolo[1,5-a]pyrimidin-5(4H)-one], the concentration for half-maximal inhibition (IC50) is 2.2 nM.

For the molecule `Cc1cncc(-c2nn3c(c2C)N(C)C(=O)CC3)c1` [Example 8, 3,4-dimethyl-2-(5-methylpyridin-3-yl)-6,7-dihydropyrazolo[1,5-a]pyrimidin-5(4H)-one], the concentration for half-maximal inhibition (IC50) worked out at 9.8 nM.

Take `CCc1c(-c2cncc(C)c2)nn2c1N(C)C(=O)CC2` [Example 9, 3-ethyl-4-methyl-2-(5-methylpyridin-3-yl)-6,7-dihydropyrazolo[1,5-a]pyrimidin-5(4H)-one]: half-maximal inhibition (IC50) was put at 7.8 nM.

`Cc1cncc(-c2nn3c(c2C2CC2)NC(=O)CC3)c1` [Example 10, 3-cyclopropyl-2-(5-methylpyridin-3-yl)-6,7-dihydropyrazolo[1,5-a]pyrimidin-5(4H)-one] registered an IC50 of 13.2 nM.

For `Cc1c(-c2cncc(F)c2)nn2c1N(C)C(=O)CC2` [Example 12, 2-(5-fluoropyridin-3-yl)-3,4-dimethyl-6,7-dihydropyrazolo[1,5-a]pyrimidin-5(4H)-one], the IC50 is 19.1 nM. The IC50 values of the last two molecules are within 1.5-fold of each other.

`CCc1c(-c2cncc(F)c2)nn2c1NC(=O)CC2` [Example 13, 3-ethyl-2-(5-fluoropyridin-3-yl)-6,7-dihydropyrazolo[1,5-a]pyrimidin-5(4H)-one]: the midpoint of inhibition, the IC50, lay at 11.7 nM.

On to `Cc1c(-c2cncc(F)c2)nn2c1NC(=O)CC2` [Example 15, 2-(5-fluoropyridin-3-yl)-3-methyl-6,7-dihydropyrazolo [1,5-a]pyrimidin-5(4H)-one], for which 30.9 nM corresponded to half-maximal inhibition (IC50).

`O=C1CCn2nc(-c3cncc(F)c3)c(C3CC3)c2N1` [Example 19, 3-cyclopropyl-2-(5-fluoropyridin-3-yl)-6,7-dihydropyrazolo[1,5-a]pyrimidin-5(4H)-one]: it took 102 nM to reach half-maximal inhibition (IC50).

One may read the inhibition as how much of the control response was suppressed. Lower therefore signals little suppression. What is called IC50 is the concentration that inhibits the measured activity by half.
